Test results reported in PubChem BioAssay (NCI).
Where “and” joins values, the source holds several entries; their conditions need not be identical. Equal entries are not always repeated.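 Results reflect a 48-hour exposure of cells in 96-well plates to compound at five concentrations. Abbreviation: GI50, concentration required for 50% inhibition of growth. TGI is the concentration that stops growth completely.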

What was measured:
Assay in all cases: DTP human tumour cell line panel, 48 h
[1] = system: HT29 colon
[2] = system: TK-10 renal
[3] = system: SW-620 colon
[4] = system: RPMI-8226 leukemia
[5] = system: OVCAR-3 ovarian
[6] = system: HOP-62 NSCLC
[7] = system: OVCAR-5 ovarian
[8] = system: NCI-H226 lung
[9] = system: HCT-15 colon
[10] = system: HCT-116 colon

| Structure (SMILES) | GI50 [1] | TGI [1] | GI50 [2] | TGI [2] | GI50 [3] | TGI [3] | GI50 [4] | TGI [4] | GI50 [5] | TGI [5] | GI50 [6] | TGI [6] | GI50 [7] | TGI [7] | GI50 [8] | TGI [8] | GI50 [9] | TGI [9] | GI50 [10] | TGI [10] |
| --- | --- | --- | --- | --- | --- | --- | --- | --- | --- | --- | --- | --- | --- | --- | --- | --- | --- | --- | --- | --- |
| O=C1CC(c2ccc3c(c2)OCO3)Nc2ccccc21 (stereo unspecified) | 7.76 µM | 33.1 µM | 25.7 µM | 99.4 µM | 6.61 µM | 23.1 µM | 3.05 µM | 13.3 µM | 5.01 µM | 21.3 µM | 14.2 µM | 86 µM | 11.1 µM | > 55.4 µM | 24.6 µM | > 88 µM | 5.61 µM | 31 µM | 10.2 µM | 23.9 µM |
| O=C1C=C(Cl)C(=O)C(c2ccc(Cl)cc2)=C1 |  | 62.8 µM |  | 35.9 µM |  | 89.5 µM |  | 83.8 µM |  | 34.3 µM |  | 44 µM |  | 39.6 µM |  | 85.5 µM |  | 47.5 µM |  | 38.1 µM |
| O=C1C(Cl)=C(Nc2cccc(Cl)c2)C(=O)N1Cc1ccc(Cl)cc1Cl | 0.971 µM | 14.7 µM | 11.5 µM | 31.7 µM | 0.115 µM | 18.9 µM | 3.18 µM | 15.4 µM | 11.1 µM | 24.8 µM | 5.61 µM | 22.8 µM | 11.6 µM | 37.1 µM |  | 2.26 µM | 0.0981 µM | 8.84 µM | 0.685 µM | 7.57 µM |
| CCOC(=O)[C@]1(OC(C)=O)C[C@H](OC(C)=O)[C@@H](C(F)COP(=O)(OCc2ccccc2)OCc2ccccc2)O1 (stereo partly specified) | 28.2 µM and > 100 µM | 83 µM and > 100 µM | 18.8 µM and > 100 µM | 35.7 µM and > 100 µM | 20.2 µM and > 100 µM | 42.8 µM and > 100 µM |  | 46.5 µM and 82.5 µM | 29.6 µM and > 100 µM | 79.4 µM and > 100 µM |  | > 100 µM | 32.7 µM and > 100 µM | 95 µM and > 100 µM |  | > 100 µM | 33.1 µM and > 100 µM | > 100 µM | 23.4 µM and > 100 µM | 57.9 µM and > 100 µM |
| O=C1C2C(C(=O)N1OS(=O)(=O)c1ccccc1)N(Cc1ccccc1)C(=O)N2Cc1ccccc1 (stereo unspecified) |  | > 100 µM |  | > 100 µM |  | > 100 µM |  | > 100 µM |  | > 100 µM |  | > 100 µM |  | > 100 µM |  | > 100 µM |  | > 100 µM |  | > 100 µM |
| CC1(C)CCc2c(c3c(c4c(=O)c(O)c(-c5ccc(O)cc5)oc24)OC(C)(C)CC3)O1 | > 100 µM | > 100 µM | 36.6 µM | > 100 µM | > 100 µM | > 100 µM | > 100 µM | > 100 µM | 49.9 µM | > 100 µM | 24.8 µM | 54.7 µM | > 100 µM | > 100 µM | 58.5 µM | > 100 µM | > 100 µM | > 100 µM | 57.6 µM | > 100 µM |
| Cc1ccc(C(=O)/C(=C/c2ccc([N+](=O)[O-])cc2)SCc2ccc(Cl)cc2)cc1 | 0.676 µM | 2.86 µM | 4.95 µM | 30.7 µM | 0.21 µM | 0.523 µM | 0.24 µM | 0.696 µM | 1.72 µM | 3.54 µM | 29.7 µM | > 100 µM | 2.5 µM | 9.12 µM | > 100 µM | > 100 µM | 0.565 µM | 2.69 µM | 0.317 µM | 1.36 µM |
